The record followed here is PubChem BioAssay AID977606 (Broad Institute, 2014).

Where “and” joins values, the source holds several entries; their conditions need not be identical. Identical values can stand only once. Calls of active or inactive are those of the source. No rule for the calls is given here.

The assay has as its system INS-1E Gaussia luciferase insulin secretion, no glucose, luminescence. Kind of assay: glucose-independent GLuc insulin release activation – cell-based, INS-1E, Gaussia luciferase, luminescence, cherry-pick, counter-screen for glucose-dependent insulin secretion activators, dose response (AID 977606).
Take `N#Cc1cccc(-c2ccc([C@@H]3[C@@H]4CN(S(=O)(=O)c5ccc(-c6ccccc6)cc5)C[C@H]3N4)cc2)c1`: the AC40 is 1.89 µM.
Under `Cc1cccc(OCC(=O)Nc2ccc(NC(=O)c3ccco3)cc2)c1` stands 12.4 µM.
For `CN(C)CCCNc1cc(C(C)(C)C)nc2c(-c3ccc(Cl)cc3)cnn12`, the AC40 was 3.6 µM.
Under `CC(C)(C)c1ccccc1OCC(O)CN1CCN(c2ccccn2)CC1` (configuration not stated) stands 13 µM; under `Nc1nc(N)c2cc(Sc3ccc(Cl)cc3)ccc2n1`, 9.55 µM; under `CCCCc1c(-c2ccccc2OC)ncn1Cc1ccc(C)cc1`, 11.9 µM.
Then `COc1cccc(OCc2nc3c4cnn(-c5ccccc5)c4ncn3n2)c1`, with 6.42 µM; and `Cc1ccc(-n2cc(CNCCCn3ccnc3C)c(-c3ccc(F)cc3)n2)cc1`, with 30.7 µM.
Under `CC(NC(=O)COC(=O)c1ccccc1Nc1ccccc1)c1ccccc1` (configuration not stated) stands 12.1 µM; under `N/C(=N\OC(=O)COc1ccc(Cl)cc1Cl)c1cccnc1`, 19.3 µM.
Consider `COC(=O)c1ccc2c(=O)[nH]c(CSc3nc(-c4ccc(F)cc4)cs3)nc2c1`, for which the AC40 is 4.39 µM.
Then `OC(c1ccccc1)(c1ccccc1)C1CCN(CCCOc2ccc(-c3ccsc3)cc2)CC1`, with 9.65 µM; and `C[C@@H]1CN([C@H](C)CO)S(=O)(=O)c2ccc(-c3ccc(F)cc3)cc2O[C@H]1CN(C)Cc1cccc(F)c1`, with 17.7 µM; and `C[C@H](CO)N1C[C@H](C)[C@@H](CN(C)C(=O)Cc2ccccn2)Oc2cc(C#C[C@@H](C)O)ccc2S1(=O)=O`, with 18 µM.
Under `O=C(CCN1CCOCC1)c1ccc2c(c1)OCCO2` stands 33.2 µM; under `CC(C)C(Cl)=NOC(=O)Nc1ccc(S(N)(=O)=O)cc1`, 4.58 µM.
Then `CC1(C(=O)NS(=O)(=O)c2ccc(Cl)s2)CCN1C(=O)C1(c2ccccc2)CCCC1` (configuration not stated), with 9.9 µM; and `COC(=O)C1=C(C)N(Cc2cccc(C(F)(F)F)c2)C(=NCc2ccc(OC)cc2)NC1c1cccc(Cl)c1` (configuration not stated), with 5.16 µM; and `CC(C)(C)c1cc(NCCCn2ccnc2)n2ncc(-c3ccc(Cl)cc3)c2n1`, with 4.39 µM.
In the case of `CC(C)(C)C1CCc2c(sc(NC(=O)c3cccs3)c2C(N)=O)C1` (configuration not stated), the AC40 is 16.5 µM.
Then `O=C(CCN1CCOCC1)c1ccccc1`, with 10.3 µM.
For `Cc1ccc(OCC(=O)NC(=S)Nc2cccc(NC(=O)c3ccccc3)c2)cc1`, the AC40 is 8.85 µM.
In the case of `CCOC(=O)Cn1c(=NC(=O)c2nc3ccccc3s2)sc2cc(S(N)(=O)=O)ccc21`, the AC40 was 18.3 µM.
Under `COc1ccc(CCNC(=O)C(=O)NN=C2CCCCCCC2)cc1OC` stands 21.7 µM; under `NC[C@H](Cc1ccccc1)NCCc1cc(C(F)(F)F)cc(C(F)(F)F)c1`, 9.24 µM.
Under `C/C(=N\NC(=O)c1ccc(Cl)c(Cl)c1)c1ccc(Br)s1` stands 7.32 µM.
Then `O=C(Cn1cnc2c(OCc3ccccc3)ncnc21)NCc1ccccn1`, with 31.1 µM.
Consider `CCOC(=O)c1cc(-c2ccc(Cl)s2)nc2c1c(C)nn2C`, for which the AC40 is 13.6 µM.
`CCn1c(O)c(/C=N/N=C/c2ccc(OC)cc2)c2cc(C3=NNC(=O)CC3)ccc21`: the AC40 was 4.2 µM.
Then `O=C(Nc1ccc(F)cc1)Nc1cc(OCC(F)(F)F)cc(OCC(F)(F)F)c1`, with 5.78 µM.
Then `CC(=O)C1=C(S(=O)(=O)c2ccc(C)cc2)CS(=O)(=O)C1`, with 0.613 µM.
Turning to `Cc1ccc(-n2ncc3c(=O)n(CC(=O)Nc4cccc(Cl)c4)cnc32)cc1C`, the AC40 was 6.76 µM.
Under `NC(CCc1ccccc1)c1csc(Nc2ccc(C(F)(F)F)cn2)n1` (configuration not stated) stands 6.01 µM; under `COc1ccc(C(C)NCCC(c2ccc(OC(C)C)cc2)c2ccccc2OC)cc1` (configuration not stated), 4.99 µM; under `O=C(Nc1nc(-c2ccc(-c3ccccc3)cc2)cs1)C1=COCCO1`, 4.37 µM.
As to `COc1cccc(-c2ccc(C3[C@@H]4CN(Cc5cccc(F)c5)C[C@H]3N4)cc2)c1` (some centres not stated), the AC40 was 7.22 µM.
`CCCCCCc1cc2cc(C(=O)Nc3cccc(OC)c3)c(=O)oc2cc1O`: the AC40 is 13.4 µM.
Then `CCC(=O)Nc1sc(Cc2ccc3c(c2)OCO3)c(C)c1C(N)=O`, with 7.01 µM; and `O=c1[nH]cnc2nc(-c3ccc(N(CCCl)CCCl)cc3)[nH]c12`, with 4.26 µM.
As for `Cc1cc(S(=O)(=O)Nc2nc(CN3CCOCC3)nc3sc4c(c23)CCC4)ccc1F`, the AC40 was > 35 µM (inactive).
Then `O=C(Nc1cccc(Cl)c1)Nc1nnc(CSCCOc2ccc(Cl)cc2)s1`, with 3.41 µM; and `CCOC(=O)c1oc2ccccc2c1NC(=O)c1cccs1`, with 12.6 µM.
Then `N#Cc1sc2nc(N3CCCCC3)c3c(c2c1N)CCCC3`, with 21.2 µM; and `C[C@H]1CN([C@@H](C)CO)S(=O)(=O)c2ccc(C#Cc3ccccc3)cc2O[C@@H]1CN(C)C(=O)CN(C)C`, with 11.1 µM.
Then `COc1ccc2c(c1)C(=NNC(=O)c1ccccn1)c1cc(OC)ccc1-2`, with 2.66 µM.
Turning to `Cc1ccccc1-n1sc2cc(F)ccc2c1=O`, the AC40 was 0.539 µM.
Then `CC1(C(=O)NCc2cccc3ccccc23)CCN1Cc1ccc(OC(F)(F)F)cc1` (configuration not stated), with 9.49 µM; and `Cc1ccccc1-c1ccc(C2[C@@H]3CN(C(=O)Nc4cccc(F)c4)C[C@H]2N3)cc1` (some centres not stated), with 7.52 µM.
Turning to `COC(=O)c1ccc(C(=O)Nc2cc(Cl)ccc2Cl)cc1NC(=O)c1ccccc1C`, the AC40 was 1.39 µM.
Under `CCCCc1c(-c2ccccc2OC)ncn1Cc1ccccc1C` stands 11.3 µM; under `Cc1nc(NC(=O)c2cccc(-c3cc4ccccc4oc3=O)c2)ccc1Br`, 7.19 µM; under `CCc1ccc(OCC(=O)NC(=S)Nc2ccc(F)cc2)c(Br)c1`, 6.76 µM.
As for `CCCCc1nc(NCCN)c(C#N)c2c1CSC(C)(C)C2`, the AC40 is 11.6 µM.
Under `Cc1[nH]c2ccc(OC(F)(F)F)cc2c1CCNCc1ccc(Cl)cc1` stands 5.89 µM; under `O=C(Nc1ccc(C(F)(F)F)cc1)N1C[C@@H]2N[C@H](C1)C2c1ccc(/C=C/c2ccccc2)cc1` (some centres not stated), 5.24 µM and 0.87 µM.
Under `COc1ccc(-c2cccc(C(=O)Nc3ccc(C)cc3)c2)cc1` stands 13.6 µM.
Under `O=C(NCCC1=CCCCC1)C(=O)NCC(c1ccco1)N1CCN(c2ccccc2)CC1` (configuration not stated) stands 3.54 µM; under `CC(C)CSc1nc2c(c(=O)[nH]c(=O)n2C)n1CCc1ccccc1`, 9.29 µM.
With `Cc1ccc(-c2ccc(C3[C@@H]4CN(C(=O)Nc5ccc(C(F)(F)F)cc5)C[C@H]3N4)cc2)cc1` (some centres not stated), the AC40 was 1.17 µM and 2.2 µM.
Then `CCOc1ccc(-n2nnnc2-c2nc3ccccc3s2)cc1`, with 12.2 µM.
Then `CCCCc1c(Cc2ccccc2)ncn1CCc1ccccc1OC`, with 9.34 µM; and `COc1cc2nc(N3CCN(c4cc(C)ccc4C)CC3)nc(N)c2cc1OC`, with 8.68 µM; and `O=C(NCC1OCCc2ccccc21)c1ccc(NC(=O)c2ccc(Cl)cc2)cc1` (configuration not stated), with 6.61 µM.
Under `CC(C)(C(=O)N1CCC1(C)C(=O)NS(=O)(=O)c1ccc(Br)cc1)c1ccccc1` (configuration not stated) stands 10.3 µM; under `N#Cc1nccnc1S(=O)(=O)c1cccs1`, 0.355 µM.
Consider `Fc1ccccc1-c1ccc(C2[C@@H]3CN(Cc4ccccc4)C[C@H]2N3)cc1` (some centres not stated), for which the AC40 was 7.19 µM.
In the case of `COc1ccc(NC(=O)COc2ccc(C(=O)NC3CCCc4ccccc43)cc2OC)cc1` (configuration not stated), the AC40 was 5.92 µM.
